Measurements reported in patent EP4603105A1, “PHARMACEUTICAL COMPOSITION CONTAINING CYCLIC COMPOUND HAVING SELECTIVE KRAS INHIBITORY EFFECT AGAINST HRAS AND NRAS” (CHUGAI SEIYAKU KABUSHIKI KAISHA, priority 2022, dated 2024).
Where a SMILES comes first, the peptide text is derived from it. Bridges are numbered along the chain shown (N, C = ends). [ ]: non-standard residue; d: D form. The star is where a group is joined. hPhe(3,5-F2-4-CF3) = N[C@@H](CCc1cc(F)c(C(F)(F)F)c(F)c1)C(=O)O; hPhe(3-Cl-4-CF3) = N[C@@H](CCc1ccc(C(F)(F)F)c(Cl)c1)C(=O)O; NPrPhe(4-CF3) = CCCN[C@@H](Cc1ccc(C(F)(F)F)cc1)C(=O)O; NMeAbu(4,4,4-F3) = CN[C@@H](CC(F)(F)F)C(=O)O; NMeGly(cPent) = CN[C@H](C(=O)O)C1CCCC1; Pro(4,4-F2) = O=C(O)[C@@H]1CC(F)(F)CN1; NMeD = CN[C@@H](CC(=O)O)C(=O)O; NMeL = CN[C@@H](CC(C)C)C(=O)O; Morpholide = C1CN(*)CCO1; NMeA = CN[C@@H](C)C(=O)O; Ac5c = NC1(C(=O)O)CCCC1; Aze = O=C(O)[C@@H]1CCN1; Ac4c = NC1(C(=O)O)CCC1; Sar = CNCC(=O)O

Tests used:
[1] = target: GDP-bound NRAS wild-type protein (Homo sapiens, UniProt P01111); assay: Binding to NRAS by surface plasmon resonance (SPR), KD and KD ratio to KRAS
How it was run: (§1)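 Captured GDP-RAS (~100–300 RU) was exposed to increasing compound concentrations, 75 s per step, in running buffer with 10 µM GDP, 10 mM MgCl2 and 4% DMSO at pH 7.4.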

HRAS wild-type protein = HRAS wild-type protein (Homo sapiens, UniProt P01112); assay: Binding to HRAS by surface plasmon resonance (SPR), KD and KD ratio to KRAS
How it was run: as §1

[2] = test system: human lung cancer strain NCI-H441; assay type: cell-based
How it was run: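 Step one: dispense the test compound in serial DMSO dilutions. Step three: add the reagent and measure […].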

[3] = ratio of the KD value with respect to GDP-bound NRAS wild-type protein to the KD value with respect to KRAS
[4] = ratio of the KD value with respect to HRAS wild-type protein to the KD value with respect to KRAS
[5] = ratio of KD for GDP-bound NRAS wild-type protein to KD for KRAS
[6] = ratio of KD for HRAS wild-type protein to KD for KRAS
[7] = ratio of KD value for GDP-bound NRAS wild-type protein to KD value for KRAS (SPR)
[8] = ratio of KD value for HRAS wild-type protein to KD value for KRAS (SPR)

Chain of HRAS wild-type protein (P01112 whole entry): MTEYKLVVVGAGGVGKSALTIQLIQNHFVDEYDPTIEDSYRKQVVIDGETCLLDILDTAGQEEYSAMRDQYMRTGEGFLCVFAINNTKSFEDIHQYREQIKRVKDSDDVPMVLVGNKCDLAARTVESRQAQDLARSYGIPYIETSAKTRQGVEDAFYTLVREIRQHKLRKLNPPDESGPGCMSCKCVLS
Chain of GDP-bound NRAS wild-type protein (P01111 whole entry): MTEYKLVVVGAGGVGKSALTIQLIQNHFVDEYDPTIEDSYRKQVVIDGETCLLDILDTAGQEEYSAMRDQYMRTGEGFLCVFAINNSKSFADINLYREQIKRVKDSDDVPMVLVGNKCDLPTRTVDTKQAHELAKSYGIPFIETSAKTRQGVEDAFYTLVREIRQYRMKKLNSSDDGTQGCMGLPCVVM

SMILES	NRAS /KRAS [1, 3]	HRAS /KRAS (HRAS wild-type protein; [4])	IC50 [2]	NRAS /KRAS [1, 5]	HRAS /KRAS (HRAS wild-type protein; [6])	NRAS /KRAS [1, 7]	HRAS /KRAS (HRAS wild-type protein; [8])
CCCN(C)C(=O)[C@@H]1CC(=O)N(C)[C@@H](COCC)C(=O)N[C@@H]([C@@H](C)CC)C(=O)N(C)CC(=O)N(C)[C@H]2C/C=C\CCN(C2=O)[C@@H](Cc2ccc(C(F)(F)F)cc2)C(=O)N(C)CC(=O)N[C@@H](CCc2cc(F)c(C(F)(F)F)c(F)c2)C(=O)N2C[C@H](OCC)C[C@H]2C(=O)NC2(CCC2)C(=O)N(C)[C@@H](C2CCCC2)C(=O)N1C [PP1988]	A (a compound having 10 or more and less than 20 is denoted as A)	A (a compound having 10 or more and less than 20 is denoted as A)	11 nM				
CC[C@H](C)[C@@H]1NC(=O)[C@@H]2CCCCCCc3ccc(cc3)C[C@@H](C(=O)N(C)CC(=O)N[C@@H](CCc3ccc(C(F)(F)F)c(OC)c3)C(=O)N3C[C@H](OC(C)C)C[C@H]3C(=O)NC3(CC(C)(C)C3)C(=O)N(C)[C@@H](C3CCCC3)C(=O)N(C)[C@H](C(=O)N(C)C)CC(=O)N2C)N2CC/C=C\C[C@@H](C2=O)N(C)C(=O)CN(C)C1=O [PP3067]			1.1 nM	A (a compound having 10 or more and less than 20 is denoted as A)	B (a compound having 3 or more and less than 10 is denoted as B)		
CCCN1C(=O)[C@@H]2CCN2C(=O)[C@H](C)N(C)C(=O)[C@H]([C@@H](C)CC)NC(=O)[C@H](CC(C)C)N(C)C(=O)C[C@@H](C(=O)N(C)C)N(C)C(=O)[C@H](C2CCCC2)N(C)C(=O)C2(CCCC2)NC(=O)[C@@H]2CCCN2C(=O)[C@H](CCc2ccc(C(F)(F)F)c(Cl)c2)NC(=O)CN(C)C(=O)[C@@H]1Cc1ccc(C(F)(F)F)cc1 [PP0178] ([NMeL]I[NMeA][Aze][NPrPhe(4-CF3)][Sar][hPhe(3-Cl-4-CF3)]P[Ac5c][NMeGly(cPent)][NMeD]-NMe2; lactam N-11)			1.5 nM	C (A compound having a KD ratio of 0.1 or more and less than 3 is denoted as C)	B (a compound having 3 or more and less than 10 is denoted as B)		
CCC[C@H]1C(=O)N[C@@H](C2CCCC2)C(=O)N(C)CC(=O)N(C)[C@H]2C/C=C\CCN(C2=O)[C@@H](Cc2ccc(C)cc2)C(=O)N(C)CC(=O)N[C@@H](CCc2ccc(C(F)(F)F)c(Cl)c2)C(=O)N2C[C@H](OCC)C[C@H]2C(=O)NC2(CC(C)(C)C2)C(=O)N(C)[C@@H](C2CCCC2)C(=O)N(C)[C@H](C(=O)N(C)C)CC(=O)N1C [PP2198]	A (a compound having 10 or more and less than 20 is denoted as A)	A (a compound having 10 or more and less than 20 is denoted as A)	13.8 nM				
CCO[C@@H]1C[C@H]2C(=O)NC3(CC(C)(C)C3)C(=O)N(C)[C@@H](C(CC)CC)C(=O)N(C)[C@H](C(=O)N(C)C)CC(=O)N(C)[C@@H](CC)C(=O)N[C@@H]([C@@H](C)CC)C(=O)N(C)CC(=O)N(C)[C@H]3C/C=C\CCN(C3=O)[C@@H](Cc3ccc(C)cc3)C(=O)N(C)CC(=O)N[C@@H](CCc3cc(F)c(C(F)(F)F)c(F)c3)C(=O)N2C1 [PP2147]	A (a compound having 10 or more and less than 20 is denoted as A)	B (a compound having 3 or more and less than 10 is denoted as B)	9.7 nM				
CC[C@H](C)[C@@H]1NC(=O)[C@H](CC(C)C)N(C)C(=O)C[C@@H](C)N(C)C(=O)[C@H](C2CCCC2)N(C)C(=O)C2(CCCC2)NC(=O)[C@@H]2CCCN2C(=O)[C@H](CCc2cc(F)c(C(F)(F)F)c(F)c2)NC(=O)CN(C)C(=O)[C@H](Cc2ccc(C(F)(F)F)cc2)N2CC/C=C\C[C@@H](C2=O)N(C)C(=O)CN(C)C1=O [PP1102]			83.1 nM	B (a compound having 3 or more and less than 10 is denoted as B)	A (a compound having 10 or more and less than 20 is denoted as A)		
CCO[C@@H]1C[C@H]2C(=O)NC3(CCC3)C(=O)N(C)[C@@H](C3CCCC3)C(=O)N(C)[C@H](C(=O)N(C)C)CC(=O)N(C)[C@@H](COC)C(=O)N[C@@H]([C@@H](C)CC)C(=O)N(C)CC(=O)N(C)[C@H]3C/C=C\CCN(C3=O)[C@@H](Cc3ccc(C(F)(F)F)cc3)C(=O)N(C)CC(=O)N[C@@H](CCc3cc(F)c(C(F)(F)F)c(F)c3)C(=O)N2C1 [PP1113]			21.4 nM	A (a compound having 10 or more and less than 20 is denoted as A)	A (a compound having 10 or more and less than 20 is denoted as A)		
CCCN1C(=O)CN(C)C(=O)CN(C)C(=O)[C@H]([C@@H](C)CC)NC(=O)[C@H](CC(C)C)N(C)C(=O)C[C@@H](C(=O)N(C)C)NC(=O)[C@H](C2CCCC2)N(C)C(=O)C2(CCC2)NC(=O)[C@@H]2CC(F)(F)CN2C(=O)[C@H](CCc2ccc(C(F)(F)F)c(Cl)c2)NC(=O)CN(C)C(=O)[C@@H]1Cc1ccc(C(F)(F)F)cc1 [PP0358] ([NMeL]I[Sar][Sar][NPrPhe(4-CF3)][Sar][hPhe(3-Cl-4-CF3)][Pro(4,4-F2)][Ac4c][NMeGly(cPent)]D-NMe2; lactam N-11)			34.8 nM	B (a compound having 3 or more and less than 10 is denoted as B)	C (A compound having a KD ratio of 0.1 or more and less than 3 is denoted as C)		
CC[C@H](C)[C@@H]1NC(=O)[C@H](CC(C)C)N(C)C(=O)C[C@@H](C(=O)N2CCOCC2)N(C)C(=O)[C@H](C2CCCC2)N(C)C(=O)C2(CCCC2)NC(=O)[C@@H]2CCCN2C(=O)[C@H](CCc2ccc(C(F)(F)F)c(Cl)c2)NC(=O)CN(C)C(=O)[C@H](Cc2ccc(OC)cc2)N2CC=CC[C@@H](C2=O)N(C)C(=O)CN(C)C1=O [PP0535]	C (A compound having a KD ratio of 0.1 or more and less than 3 is denoted as C)	B (a compound having 3 or more and less than 10 is denoted as B)	55.4 nM				
CCC[C@H]1C(=O)N[C@@H]([C@@H](C)CC)C(=O)N(C)CC(=O)N(C)[C@H]2C/C=C\CCN(C2=O)[C@@H](Cc2ccc(C)cc2)C(=O)N(C)CC(=O)N[C@@H](CCc2ccc(C(F)(F)F)c(OC)c2)C(=O)N2C[C@H](OCC)C[C@H]2C(=O)NC2(CC(C)(C)C2)C(=O)N(C)[C@@H](C(CC)CC)C(=O)N(C)[C@H](C(=O)N(C)C)CC(=O)N1C [PP2068]	A (a compound having 10 or more and less than 20 is denoted as A)	B (a compound having 3 or more and less than 10 is denoted as B)	11.1 nM				
CC[C@H](C)[C@@H]1NC(=O)[C@H](CC(C)C)N(C)C(=O)C[C@@H](C(=O)N2CCOCC2)N(C)C(=O)[C@H](C2CCCC2)N(C)C(=O)C2(CCC2)NC(=O)[C@@H]2C[C@@H](OCC3CC3)CN2C(=O)[C@H](CCc2cc(F)c(C(F)(F)F)c(F)c2)NC(=O)CN(C)C(=O)[C@H](Cc2ccc(C(F)(F)F)cc2)N2CCCCC[C@@H](C2=O)N(C)C(=O)CN(C)C1=O [PP1005]			275 nM	A (a compound having 10 or more and less than 20 is denoted as A)	A (a compound having 10 or more and less than 20 is denoted as A)		
CCO[C@@H]1C[C@H]2C(=O)NC3(CCC3)C(=O)N(C)[C@@H](C3CCCC3)C(=O)N(C)[C@H](C(=O)N(C)CC)CC(=O)N(C)[C@H]3CCC/C=C/c4ccc(cc4)C[C@@H](C(=O)N(C)CC(=O)N[C@@H](CCc4ccc(C(F)(F)F)c(OC)c4)C(=O)N2C1)N1CC/C=C\C[C@@H](C1=O)N(C)C(=O)CN(C)C(=O)[C@H]([C@@H](C)CC)NC3=O [PP1834]			2.1 nM			A (a compound having 10 or more and less than 20 is denoted as A)	B (a compound having 3 or more and less than 10 is denoted as B)
CCCN1C(=O)CN(C)C(=O)CN(C)C(=O)[C@H]([C@@H](C)CC)NC(=O)[C@H](CC(C)C)N(C)C(=O)C[C@@H](C(=O)N2CCOCC2)N(C)C(=O)[C@H](CC(F)(F)F)N(C)C(=O)C2(CCCC2)NC(=O)[C@@H]2CCCN2C(=O)[C@H](CCc2cc(F)c(C(F)(F)F)c(F)c2)NC(=O)CN(C)C(=O)[C@@H]1Cc1ccc(C(F)(F)F)cc1 [PP0767] ([NMeL]I[Sar][Sar][NPrPhe(4-CF3)][Sar][hPhe(3,5-F2-4-CF3)]P[Ac5c][NMeAbu(4,4,4-F3)][NMeD]-Morpholide; lactam N-11)			158 nM	B (a compound having 3 or more and less than 10 is denoted as B)	C (A compound having a KD ratio of 0.1 or more and less than 3 is denoted as C)		
CC[C@H](C)[C@@H]1NC(=O)[C@@H]2CCCCCCc3ccc(cc3)C[C@@H](C(=O)N(C)CC(=O)N[C@@H](CCc3ccc(C(F)(F)F)c(OC)c3)C(=O)N3C[C@H](OC4CCC4)C[C@H]3C(=O)NC3(CC(C)(C)C3)C(=O)N(C)[C@@H](C3CCCC3)C(=O)N(C)[C@H](C(=O)N(C)C)CC(=O)N2C)N2CC/C=C\C[C@@H](C2=O)N(C)C(=O)CN(C)C1=O [PP3068]			4.5 nM	A (a compound having 10 or more and less than 20 is denoted as A)	B (a compound having 3 or more and less than 10 is denoted as B)		
CCCN(C)C(=O)[C@@H]1CC(=O)N(C)[C@@H](CC(F)(F)F)C(=O)N[C@@H]([C@@H](C)CC)C(=O)N(C)CC(=O)N(C)[C@H]2C/C=C\CCN(C2=O)[C@@H](Cc2ccc(C(F)(F)F)cc2)C(=O)N(C)CC(=O)N[C@@H](CCc2cc(F)c(C(F)(F)F)c(F)c2)C(=O)N2C[C@H](OCC)C[C@H]2C(=O)NC2(CCC2)C(=O)N(C)[C@@H](C2CCCC2)C(=O)N1C [PP1702]			4.9 nM			A (a compound having 10 or more and less than 20 is denoted as A)	A (a compound having 10 or more and less than 20 is denoted as A)
